From PubChem BioAssay AID1963836 (Molecular Pharmacology Branch, DTP, NCI, 2024)

Test system: 857933-349-R-J2-PDC complex spheroid viability
Experiment: Anticancer human tumor 857933-349-R-J2-PDC patient-derived colon adenocarcinoma cell line growth inhibition [POLQ]
Conditions: for IC50: curve of first compound; for viability, T/C: stronger effect = lower value
Description: Multicellular complex tumor spheroid response to Polymerase (POL) inhibitors (novobiocin, ART-558, RP6685) in combination with a variety of drugs and investigational agents in selected tumor cell lines
The POL inhibitors (novobiocin, ART-558, and RP6685) were evaluated both individually and in combination with standard of care and investigational anticancer small molecules within a complex spheroid model of solid tumors. . Complex spheroids include a stromal component modeled by human endothelial cells (HUVEC) and fibroblasts modeled by human mesenchymal stem cells (MSCs). The concentration ranges selected for each drug and investigational agent were based upon clinically achievable concentrations if the clinical Cmax of the agent was known.
Compounds. The drugs and investigational agents: novobiocin (NSC847541), ART-558 (NSC835418), RP-6685 (NSC848927), peposertib (NSC802822), ceralasertib (NSC780249), elimusertib (NSC800525), camonsertib (NSC841442), AZD-1390 (NSC803789), olaparib (NSC753686), talazoparib (NSC767125), rucaparib (NSC756644), sotorasib (NSC818433), MRTX-1133 (NSC836407), SN-38 (NSC673596), topotecan (NSC609699), epotoside (NSC141540), doxorubicin (NSC123127), gemcitabine (NSC613327), 5-fluorouracil (NSC19893), paclitaxel (NSC125973), vemurafenib (NSC761431), MSA-2 (NSC828583), SN-011 (NSC837082), adavosertib (NSC754352), prexasertib (NSC758257), carboplatin (NSC241240) and oxaliplatin (NSC266046), were obtained from the National Cancer Institute (NCI) Developmental Therapeutics Program Chemical Repository (21). The FDA-approved anticancer drug set is available from the Developmental Therapeutics Program at https://dtp.cancer.gov/organization/dscb/obtaining/. […] The stock solutions were prepared in dimethyl sulfoxide (DMSO, Sigma-Aldrich, St. Louis, MO, cat. D2650), except for the platinum compounds which were prepared in saline (Quality Biological, Gaithersburg, MD, cat. 114-055-101), at 800-fold the tested concentration and stored at -70 degrees C prior to their use. All drugs and investigational agents were tested over a range starting from a high concentration at or near the clinical Cmax and decreasing in half-log increments. If the clinical Cmax for an agent had not been determined, the highest concentration tested was 10 microM, except for SN-38, which was tested at a high concentration of 1 microM.
Cell Culture. All cells were maintained in an incubator at 37 degrees C and 5% CO2 with 95% humidity. The PDC lines were cultured according to standard operating procedures established by the NCI PDMR (https://pdmr.cancer.gov). Table 3 of the manuscript, lists the cell lines along with the number of the three cell types plated to form the mct-spheroids and media for tumor cell growth. After thawing, all PDC lines, except 997537-175-T-J1-PDC and 415267-285-R-J2-PDC, were cultured in Matrigel-coated flasks prepared with a working solution of 1X Ham's F-12 nutrient mix, without supplementation (Thermo Fisher Scientific, cat. 11765054), 100 U/mL penicillin-streptomycin (Thermo Fisher Scientific, cat. 15140122), and 2.5% Matrigel (Corning Inc., Corning, NY, cat. 354248) for the first three passages. The two PDC lines 997537-175-T-J1-PDC and 415267-285-R-J2-PDC were cultured on uncoated flasks. The 857933-349-R-J2-PDC line was cultured in 6C/Colon 1B media containing advanced DMEM/F-12 (Thermo Fisher Scientific, cat. 12634028), 10 mM HEPES (Thermo Fisher Scientific, cat. 15630080), 1X GlutaMAX supplement (Thermo Fisher Scientific, cat. 35050061), 0.1 mg/mL primocin (InvivoGen, San Diego, CA, cat. ant-pm-2), 10% defined fetal bovine serum, heat inactivated (HyClone Laboratories Inc., Logan, UT, cat. SH30070.03HI), 50% L-WRN conditioned media (ATCC, cat. CRL-3276), 1.25 mM N-Acetyl-L-cysteine (Sigma-Aldrich, cat. A9165), 10 mM nicotinamide (Sigma-Aldrich, cat. N0636), 1X B-27 supplement (Thermo Fisher Scientific, cat. 17504044), 1X N-2 supplement (Thermo Fisher Scientific, cat. […]

[1] = second compound 0.0316 µM, first compound 0.0316 µM
[2] = second compound 0.0316 µM, first compound 0.1 µM
[3] = second compound 0.0316 µM, first compound 0.316 µM
[4] = second compound 0.0316 µM, first compound 1 µM
[5] = second compound 0.0316 µM, first compound 3.16 µM
[6] = second compound 0.0316 µM, first compound 10 µM
[7] = second compound 0.1 µM, first compound 0.0316 µM
[8] = second compound 0.1 µM, first compound 0.1 µM
[9] = second compound 0.1 µM, first compound 0.316 µM
[10] = second compound 0.1 µM, first compound 1 µM
[11] = second compound 0.1 µM, first compound 3.16 µM
[12] = second compound 0.1 µM, first compound 10 µM
[13] = second compound 0.316 µM, first compound 0.0316 µM
[14] = second compound 0.316 µM, first compound 0.1 µM
[15] = second compound 0.316 µM, first compound 0.316 µM
[16] = second compound 0.316 µM, first compound 1 µM
[17] = second compound 0.316 µM, first compound 3.16 µM
[18] = second compound 0.316 µM, first compound 10 µM
[19] = second compound 1 µM, first compound 0.0316 µM
[20] = second compound 1 µM, first compound 0.1 µM
[21] = second compound 1 µM, first compound 0.316 µM
[22] = second compound 1 µM, first compound 1 µM
[23] = second compound 1 µM, first compound 3.16 µM
[24] = second compound 1 µM, first compound 10 µM
[25] = second compound 3.16 µM, first compound 0.0316 µM
[26] = second compound 3.16 µM, first compound 0.1 µM
[27] = second compound 3.16 µM, first compound 0.316 µM
[28] = second compound 3.16 µM, first compound 1 µM
[29] = second compound 3.16 µM, first compound 3.16 µM
[30] = second compound 3.16 µM, first compound 10 µM
[31] = second compound 10 µM, first compound 0.0316 µM
[32] = second compound 10 µM, first compound 0.1 µM
[33] = second compound 10 µM, first compound 0.316 µM
[34] = second compound 10 µM, first compound 1 µM
[35] = second compound 10 µM, first compound 3.16 µM
[36] = second compound 10 µM, first compound 10 µM
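Also: spheroids exposed to compounds for seven days before readout.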

## C#Cc1c(F)ccc2cc(O)cc(-c3ncc4c(N5CC6CCC(C5)N6)nc(OCC56CCCN5CC(F)C6)nc4c3F)c12 (centres undefined) + COC1C(OC(N)=O)C(O)C(Oc2ccc3c(O)c(NC(=O)c4ccc(O)c(CC=C(C)C)c4)c(=O)oc3c2C)OC1(C)C
Second compound 0.0316 µM
  IC50: > 10 µM
Second compound 0.1 µM
  IC50: > 10 µM
Second compound 0.316 µM
  IC50: > 10 µM
Second compound 1 µM
  IC50: > 10 µM
Second compound 3.16 µM
  IC50: > 10 µM
Second compound 10 µM
  IC50: > 10 µM
[1]
  viability, T/C: 106%
[2]
  viability, T/C: 94.9%
[3]
  viability, T/C: 92.3%
[4]
  viability, T/C: 79.2%
[5]
  viability, T/C: 70.8%
[6]
  viability, T/C: 99.2%
[7]
  viability, T/C: 102%
[8]
  viability, T/C: 102%
[9]
  viability, T/C: 94%
[10]
  viability, T/C: 80.7%
[11]
  viability, T/C: 86.6%
[12]
  viability, T/C: 92.2%
[13]
  viability, T/C: 98%
[14]
  viability, T/C: 96.7%
[15]
  viability, T/C: 81.2%
[16]
  viability, T/C: 88.6%
[17]
  viability, T/C: 84.9%
[18]
  viability, T/C: 78.1%
[19]
  viability, T/C: 114%
[20]
  viability, T/C: 95.1%
[21]
  viability, T/C: 79.3%
[22]
  viability, T/C: 82.3%
[23]
  viability, T/C: 95.5%
[24]
  viability, T/C: 90.8%
[25]
  viability, T/C: 96.4%
[26]
  viability, T/C: 98.6%
[27]
  viability, T/C: 96%
[28]
  viability, T/C: 119%
[29]
  viability, T/C: 88.1%
[30]
  viability, T/C: 94.5%
[31]
  viability, T/C: 98.3%
[32]
  viability, T/C: 89.8%
[33]
  viability, T/C: 93%
[34]
  viability, T/C: 77.6%
[35]
  viability, T/C: 85.4%
[36]
  viability, T/C: 104%

## COc1cc(C2c3cc4c(cc3C(OC3OC5COC(C)OC5C(O)C3O)C3COC(=O)C23)OCO4)cc(OC)c1O (centres undefined) + Cc1cccc(N(C)C(=O)C2C(O)CCN2c2nc(C)cc(C(F)(F)F)c2C#N)c1
Second compound 0.0316 µM
  IC50: 0.725 µM
Second compound 0.1 µM
  IC50: 0.547 µM
Second compound 0.316 µM
  IC50: 0.797 µM
Second compound 1 µM
  IC50: 0.541 µM
Second compound 3.16 µM
  IC50: 0.24 µM
Second compound 10 µM
  IC50: 0.323 µM
[1]
  viability, T/C: 86.1%
[2]
  viability, T/C: 81.9%
[3]
  viability, T/C: 60%
[4]
  viability, T/C: 47%
[5]
  viability, T/C: 37.1%
[6]
  viability, T/C: 33.9%
[7]
  viability, T/C: 111%
[8]
  viability, T/C: 92.6%
[9]
  viability, T/C: 51.5%
[10]
  viability, T/C: 49.3%
[11]
  viability, T/C: 42.4%
[12]
  viability, T/C: 27.2%
[13]
  viability, T/C: 83.2%
[14]
  viability, T/C: 83%
[15]
  viability, T/C: 60%
[16]
  viability, T/C: 49.9%
[17]
  viability, T/C: 36%
[18]
  viability, T/C: 35.2%
[19]
  viability, T/C: 86.5%
[20]
  viability, T/C: 68.5%
[21]
  viability, T/C: 60.4%
[22]
  viability, T/C: 40%
[23]
  viability, T/C: 36.5%
[24]
  viability, T/C: 34.7%
[25]
  viability, T/C: 72.3%
[26]
  viability, T/C: 80.5%
[27]
  viability, T/C: 41.6%
[28]
  viability, T/C: 36%
[29]
  viability, T/C: 38%
[30]
  viability, T/C: 33.4%
[31]
  viability, T/C: 79.1%
[32]
  viability, T/C: 66%
[33]
  viability, T/C: 49.1%
[34]
  viability, T/C: 40.9%
[35]
  viability, T/C: 37.9%
[36]
  viability, T/C: 33.3%
